These are literature values, as cited in patent US10138221B2, “Salts of nilotinib and polymorphs thereof” (Sun Pharmaceutical Industries Limited, priority 2014, dated 2018).

Where two headings read alike, the source gives them in different places.

For data set [1] the following is noted: low solubility/low permeability.

As to `Cc1cn(-c2cc(NC(=O)c3ccc(C)c(Nc4nccc(-c5cccnc5)n4)c3)cc(C(F)(F)F)c2)cn1` [Nilotinib, 4-methyl-N-[3-(4-methyl-1H-imidazol-1-yl)-5-(trifluoromethyl)phenyl]-3-[[4-(3-pyridinyl)-2-pyrimidinyl]amino]-benzamide], the “Biopharmaceutics Classification System (BCS) class (solubility/permeability)” value in data set [1] is recorded as “class IV”. The solubility result (acidic media) was “soluble”; the solubility result (buffer solutions of pH 4.5 and higher) is listed as “practically insoluble”.
